Results on 2 compounds are retold here after US20210000889A1, “METHODS FOR PROGNOSING AND TREATING METABOLIC DISEASES” (INSERM (INSTITUT NATIONAL DE LA SANTÉ ET DE LA RECHERCHE …, priority 2018, published 2021).

The test system of one experiment is ob/ob mice. Nature of the experiment: 1MT treatment of ob/ob mice (drinking water). In kind it is in vivo. The source says:
Male C57Bl/6 Ido-1−/− mice were bought from the Jackson Laboratory (Jax) and bred in our facility. At weaning, mice were separated according to the genotype. Male ob/ob mice were bought from Janvier Laboratory at 4 weeks of age. Mice were fed with either a normal chow diet (NCD) (A03, SAFE, France) or subjected to diet-induced obesity containing 60% FAT (E15742-347, SSNIFF, Germany). High fat diet (HFD) was started at 7 weeks of age and continued for 20 weeks or less with ad libitum access to water and food. For chimerism experiment, we subjected 10 weeks old C57BL/6 WT and C57BL/6 Ido-1−/− to medullar aplasia by 9.5 gray lethal total body irradiation. We repopulated the mice with an intravenous injection of bone marrow cells isolated from femurs and tibias of male C57BL/6 WT and C57BL/6 Ido-1−/−. After 4 weeks of recovery, mice were fed a HFD for 20 weeks. In some experiments, IDO inhibitor (L-1methyl tryptophan, 1MT) (Sigma) was used at 2 mg/mL diluted in drinking water. […]
For oral glucose tolerance test (OGTT), mice were fasted overnight prior to an oral administration of 1-5 g/kg glucose. […] At 0, 15, 30, 60 min tail vein blood was collected, plasma samples were stored at −20° C. until they were analyzed for insulin concentration (Crystal Chem Inc., Downers Grove, USA). […]
HPLC Quantifications Thawed stools from mice were extracted as previously described 12. L-tryptophan (Trp) and L-kynurenine (Kyn) were measured via HPLC using a coulometric electrode array (ESA Coultronics, ESA Laboratories, Chelsford, Mass., USA)13. Quantifications were performed by referencing calibration curves obtained with internal standards. Other compounds (IAA) were quantified via liquid chromatography coupled to mass spectrometry (LC-MS) by using a Waters ACQUITY ultraperformance liquid chromatography (UPLC) system equipped with a binary solvent delivery manager and sample manager (Waters Corporation, Milford, Mass., USA) and that was coupled to a tandem quadrupole-time-of-flight (Q-TOF) mass spectrometer equipped with an electrospray interface (Waters Corporation). […]

The test system of a further experiment is WT mice on HFD. Put plainly: IAA supplementation in drinking water of WT mice on HFD. As to conditions: IAA 2 mg/ml in drinking water, HFD 11 weeks, vs not supplemented, FIG. 3. In kind it is in vivo. The protocol: (a) feces IAA (indole acetic acid) (b) ITT, and quantification of M2-like macrophages (F4/80+CD11b+CD206+ in epiWAT) and CD45+ cells (n=5 per group) (c-d), in WT mice supplemented or not with IAA (diluted in drinking water, 2 mg/ml) and put on HFD during 11 weeks (n=9-10 per group Data are expressed as mean±sem. *P≤0.05, **p<0.001, ***p<0.0001.
For oral glucose tolerance test (OGTT), mice were fasted overnight prior to an oral administration of 1-5 g/kg glucose. Blood was sampled from the tail vein at 0, 5, 15, 30, 60, 90 and 120 min in order to assay glucose concentration (OneTouch Ultra glucometer, LifeScan Europe). At 0, 15, 30, 60 min tail vein blood was collected, plasma samples were stored at −20° C. until they were analyzed for insulin concentration (Crystal Chem Inc., Downers Grove, USA). Insulin tolerance test (ITT) was performed in mice food deprived for 5 h prior to an intraperitonial injection of 1 U/kg insulin. Blood was sampled from the tail vein at 0, 5, 15, 30, 60 and 90 min in order to assay glucose concentration. […]
The stromal vascular fraction (SVF) containing mononuclear cells and preadipocytes was extracted from adipose tissue. […] The SVF pellet was resuspended in 1 mL fluorescence-activated cell sorter (FACS) buffer. […] Samples were acquired using an Fortessa cytometer (Becton Dickinson) and analyzed with FlowJo (TreeStar) software programs.

[1] abbreviates: 1MT 2 mg/mL in drinking water, vs untreated, data not shown.

On to `Cn1cc(C[C@H](N)C(=O)O)c2ccccc21` [1MT, L-1methyl tryptophan], for which, in the experiment on ob/ob mice (setting [1]), the body weight entry was “no difference in body weight” and the insulin sensitivity result was “improved insulin sensitivity”. In addition, the “ratio of Kyn/Trp in the feces” value in the experiment with ob/ob mice (1MT-treated vs not treated, FIG. 1j) was “significant decrease”.

As to `O=C(O)Cc1c[nH]c2ccccc12` [IAA, indole-3-acetic acid], in the experiment with WT mice on HFD, the “adipose inflammation (M2-like macrophages and CD45+ cells in epiWAT)” value is “decreases”; the “insulin resistance (ITT)” value was “decreases insulin resistance”.
